From the supplement of paper PMC10307832

Tests used:
Assay in all cases: relative viability (nuclei count vs DMSO), 5 days (fraction); higher = more cells survive
NCI-H2023 = test system: NCI-H2023
Procedure, shortened: (§1)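 Relative viability equals treated-well nuclei counts divided by vehicle-well nuclei counts. Counts came from 4× images of lung cancer cell lines grown in 1536-well plates for 5 days after pin-tool dosing on the day after seeding. Dosing used one drug alone or a fixed anchor-drug dose plus five library-drug doses (not always all listed) in √10 steps, and values are medians of duplicate plates.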

NCI-H1993 = test system: NCI-H1993
Procedure, shortened: as §1

NCI-H322M = test system: NCI-H322M
Procedure, shortened: as §1

H3255 = test system: H3255
Procedure, shortened: as §1

EMC-BAC-2 = test system: EMC-BAC-2
Procedure, shortened: as §1

NCI-H647 = test system: NCI-H647
Procedure, shortened: as §1

SW 1573 = test system: SW 1573
Procedure, shortened: as §1

NCI-H2347 = test system: NCI-H2347
Procedure, shortened: as §1

NCI-H661 = test system: NCI-H661
Procedure, shortened: as §1

HOP-62 = test system: HOP-62
Procedure, shortened: as §1

NCI-H2126 = test system: NCI-H2126
Procedure, shortened: as §1

SK-LU-1 = test system: SK-LU-1
Procedure, shortened: as §1

LXF-289 = test system: LXF-289
Procedure, shortened: as §1

EPLC-272H = test system: EPLC-272H
Procedure, shortened: as §1

LCLC-97TM1 = test system: LCLC-97TM1
Procedure, shortened: as §1

NCI-H1563 = test system: NCI-H1563
Procedure, shortened: as §1

PC-14 = test system: PC-14
Procedure, shortened: as §1

NCI-H2009 = test system: NCI-H2009
Procedure, shortened: as §1

NCI-H1734 = test system: NCI-H1734
Procedure, shortened: as §1

NCI-H1915 = test system: NCI-H1915
Procedure, shortened: as §1

NCI-H2085 = test system: NCI-H2085
Procedure, shortened: as §1

## Cc1sc2c(c1C)C(c1ccc(Cl)cc1)=N[C@@H](CC(=O)OC(C)(C)C)c1nnc(C)n1-2 [JQ1] + Nc1nc2[nH]cc(CCc3ccc(C(=O)N[C@@H](CCC(=O)O)C(=O)O)cc3)c2c(=O)[nH]1 [Pemetrexed] (partner 0.2 µM)
NCI-H2023; first compound 0.04 µM
  relative viability: 0.231
NCI-H2023; first compound 0.1265 µM
  relative viability: 0.195
NCI-H2023; first compound 0.4 µM
  relative viability: 0.139
NCI-H2023; first compound 1.265 µM
  relative viability: 0.101
NCI-H2023; first compound 4 µM
  relative viability: 0.109
NCI-H1993; first compound 0.04 µM
  relative viability: 0.592
NCI-H1993; first compound 0.1265 µM
  relative viability: 0.649
NCI-H1993; first compound 0.4 µM
  relative viability: 0.583
NCI-H1993; first compound 1.265 µM
  relative viability: 0.478
NCI-H1993; first compound 4 µM
  relative viability: 0.49
NCI-H322M; first compound 0.04 µM
  relative viability: 0.625
NCI-H322M; first compound 0.1265 µM
  relative viability: 0.648
NCI-H322M; first compound 0.4 µM
  relative viability: 0.515
NCI-H322M; first compound 1.265 µM
  relative viability: 0.495
NCI-H322M; first compound 4 µM
  relative viability: 0.381
H3255; first compound 0.04 µM
  relative viability: 0.569
H3255; first compound 0.1265 µM
  relative viability: 0.515
H3255; first compound 0.4 µM
  relative viability: 0.453
H3255; first compound 1.265 µM
  relative viability: 0.364
H3255; first compound 4 µM
  relative viability: 0.3
EMC-BAC-2; first compound 0.04 µM
  relative viability: 0.437
EMC-BAC-2; first compound 0.1265 µM
  relative viability: 0.369
EMC-BAC-2; first compound 0.4 µM
  relative viability: 0.365
EMC-BAC-2; first compound 1.265 µM
  relative viability: 0.366
EMC-BAC-2; first compound 4 µM
  relative viability: 0.33
NCI-H647; first compound 0.04 µM
  relative viability: 0.156
NCI-H647; first compound 0.1265 µM
  relative viability: 0.125
NCI-H647; first compound 0.4 µM
  relative viability: 0.105
NCI-H647; first compound 1.265 µM
  relative viability: 0.0945
NCI-H647; first compound 4 µM
  relative viability: 0.0741
SW 1573; first compound 0.04 µM
  relative viability: 0.826
SW 1573; first compound 0.1265 µM
  relative viability: 0.789
SW 1573; first compound 0.4 µM
  relative viability: 0.598
SW 1573; first compound 1.265 µM
  relative viability: 0.398
SW 1573; first compound 4 µM
  relative viability: 0.295
NCI-H2347; first compound 0.04 µM
  relative viability: 0.468
NCI-H2347; first compound 0.1265 µM
  relative viability: 0.423
NCI-H2347; first compound 0.4 µM
  relative viability: 0.403
NCI-H2347; first compound 1.265 µM
  relative viability: 0.405
NCI-H2347; first compound 4 µM
  relative viability: 0.357
NCI-H661; first compound 0.04 µM
  relative viability: 0.914
NCI-H661; first compound 0.1265 µM
  relative viability: 0.876
NCI-H661; first compound 0.4 µM
  relative viability: 0.916
NCI-H661; first compound 1.265 µM
  relative viability: 0.482
NCI-H661; first compound 4 µM
  relative viability: 0.423
HOP-62; first compound 0.04 µM
  relative viability: 0.271
HOP-62; first compound 0.1265 µM
  relative viability: 0.266
HOP-62; first compound 0.4 µM
  relative viability: 0.26
HOP-62; first compound 1.265 µM
  relative viability: 0.137
HOP-62; first compound 4 µM
  relative viability: 0.106
NCI-H2126; first compound 0.04 µM
  relative viability: 0.71
NCI-H2126; first compound 0.1265 µM
  relative viability: 0.721
NCI-H2126; first compound 0.4 µM
  relative viability: 0.624
NCI-H2126; first compound 1.265 µM
  relative viability: 0.519
NCI-H2126; first compound 4 µM
  relative viability: 0.413
SK-LU-1; first compound 0.04 µM
  relative viability: 0.974
SK-LU-1; first compound 0.1265 µM
  relative viability: 0.766
SK-LU-1; first compound 0.4 µM
  relative viability: 0.607
SK-LU-1; first compound 1.265 µM
  relative viability: 0.278
SK-LU-1; first compound 4 µM
  relative viability: 0.181
LXF-289; first compound 0.04 µM
  relative viability: 0.915
LXF-289; first compound 0.1265 µM
  relative viability: 0.808
LXF-289; first compound 0.4 µM
  relative viability: 0.867
LXF-289; first compound 1.265 µM
  relative viability: 0.59
LXF-289; first compound 4 µM
  relative viability: 0.541
EPLC-272H; first compound 0.04 µM
  relative viability: 0.309
EPLC-272H; first compound 0.1265 µM
  relative viability: 0.336
EPLC-272H; first compound 0.4 µM
  relative viability: 0.29
EPLC-272H; first compound 1.265 µM
  relative viability: 0.298
EPLC-272H; first compound 4 µM
  relative viability: 0.317
LCLC-97TM1; first compound 0.04 µM
  relative viability: 0.168
LCLC-97TM1; first compound 0.1265 µM
  relative viability: 0.199
LCLC-97TM1; first compound 0.4 µM
  relative viability: 0.172
LCLC-97TM1; first compound 1.265 µM
  relative viability: 0.141
LCLC-97TM1; first compound 4 µM
  relative viability: 0.0882
NCI-H1563; first compound 0.04 µM
  relative viability: 0.698
NCI-H1563; first compound 0.1265 µM
  relative viability: 0.715
NCI-H1563; first compound 0.4 µM
  relative viability: 0.673
NCI-H1563; first compound 1.265 µM
  relative viability: 0.47
NCI-H1563; first compound 4 µM
  relative viability: 0.491
PC-14; first compound 0.04 µM
  relative viability: 0.12
PC-14; first compound 0.1265 µM
  relative viability: 0.148
PC-14; first compound 0.4 µM
  relative viability: 0.105
PC-14; first compound 1.265 µM
  relative viability: 0.136
PC-14; first compound 4 µM
  relative viability: 0.133
NCI-H2009; first compound 0.04 µM
  relative viability: 0.958
NCI-H2009; first compound 0.1265 µM
  relative viability: 0.795
NCI-H2009; first compound 0.4 µM
  relative viability: 0.954
NCI-H2009; first compound 1.265 µM
  relative viability: 0.459
NCI-H2009; first compound 4 µM
  relative viability: 0.234
NCI-H1734; first compound 0.04 µM
  relative viability: 0.358
NCI-H1734; first compound 0.1265 µM
  relative viability: 0.347
NCI-H1734; first compound 0.4 µM
  relative viability: 0.327
NCI-H1734; first compound 1.265 µM
  relative viability: 0.342
NCI-H1734; first compound 4 µM
  relative viability: 0.283
NCI-H1915; first compound 0.04 µM
  relative viability: 0.46
NCI-H1915; first compound 0.4 µM
  relative viability: 0.323
NCI-H1915; first compound 1.265 µM
  relative viability: 0.295
NCI-H1915; first compound 4 µM
  relative viability: 0.167
NCI-H2085; first compound 0.04 µM
  relative viability: 0.738
NCI-H2085; first compound 0.1265 µM
  relative viability: 0.721
NCI-H2085; first compound 0.4 µM
  relative viability: 0.668
NCI-H2085; first compound 1.265 µM
  relative viability: 0.403
NCI-H2085; first compound 4 µM
  relative viability: 0.374
